The test system of this assay is TNF-alpha. As to the kind of experiment: Example 9 Luminex, LPS hPBMCs: TNF-alpha. It is filed as cell-based, human. The protocol:
Treatment Human PBMCs were pretreated with YY-101, YDE-011 and YDE-043 or reference compound; Xiidra® at various concentration (ranging from 1 nM to 100 uM) for 2 h before stimulation. An equal volume of 0.5% DMSO was used as a vehicle control. Then, the cells were treated with LPS at 5 ug/ml. The supernatants from treated cells were harvested at 24 h and placed in a 96 well for Luminex cytokine & chemokine profiling using a Luminex 200 multiplex assay (Luminex; R&D system, USA).
The main study arm with triplicate wells per group in a 24-well plate: • 1. Blank • 2. PBMC: 0.5% DMSO • 3. PBMC+LPS (5 ug/ml) • 4. PBMC+YY-101 100 uM • 5. PBMC+YY-101 10 uM • 6. PBMC+YY-101 1 uM • 7. PBMC+YY-101 0.1 uM • 8. PBMC+YY-101 0.01 uM • 9. PBMC+LPS (5 ug/ml)+Xiidra®100 uM • 10. PBMC+LPS (5 ug/ml)+Xiidra® 10 uM • 11. PBMC+LPS (5 ug/ml)+Xiidra® 1 uM • 12. PBMC+LPS (5 ug/ml)+Xiidra®0.1 uM • 13. PBMC+LPS (5 ug/ml)+Xiidra®0.01 uM • 14. PBMC+LPS (5 ug/ml)+Xiidra®0.001 uM • 15. PBMC+LPS (5 ug/ml)+YY-101 100 uM • 16. PBMC+LPS (5 ug/ml)+YY-101 10 uM • 17. PBMC+LPS (5 ug/ml)+YY-101 1 uM • 18. PBMC+LPS (5 ug/ml)+YY-101 0.1 uM • 19. PBMC+LPS (5 ug/ml)+YY-101 0.01 uM • 20. PBMC+LPS (5 ug/ml)+YY-101 0.001 uM • 21. PBMC+LPS (5 ug/ml)+YDE-011 100 uM • 22. PBMC+LPS (5 ug/ml)+YDE-011 10 uM • 23. PBMC+LPS (5 ug/ml)+YDE-011 1 uM • 24. PBMC+LPS (5 ug/ml)+YDE-011 0.1 uM • 25. PBMC+LPS (5 ug/ml)+YDE-011 0.01 uM • 26. PBMC+LPS (5 ug/ml)+YDE-011 0.001 uM • 27. PBMC+LPS (5 ug/ml)+YDE-043 100 uM • 28. PBMC+LPS (5 ug/ml)+YDE-043 10 uM • 29. PBMC+LPS (5 ug/ml)+YDE-043 1 uM • 30. PBMC+LPS (5 ug/ml)+YDE-043 0.1 uM • 31. PBMC+LPS (5 ug/ml)+YDE-043 0.01 uM • 32. PBMC+LPS (5 ug/ml)+YDE-043 0.001 uM
Multiplex assay was used to measure 30 cytokines and chemokines. The 1:2, 1:10 and 1:200 diluted cell supernatant and serial dilution of the standard were dispensed into a 96 well plate at 50 ul/well. Then, the pre-mixed cocktail of antibody-coated magnetic beads was dispensed at 50 ul/well and incubated at room temperature for 2 h in a horizontal orbital microplate shaker at 800±500 rpm. The beads were washed using a magnetic device to prevent loss. The biotin-antibody was dispensed in 50 ul of each well and incubated at room temperature for 1 h in a shaker at 800±500 rpm. After washing, streptavidin-PE was added at 50 ul/well and incubated at room temperature for 30 min in a shaker under the same conditions. Finally, after washing, wash buffer (100 ul/well) was added to the plate and incubated in a shaker for 2 min. The Luminex™ 200 setting were set according to the manufacturer's protocol. The data was calculated with a standard five-parameter logistic nonlinear regression analysis of the data (xPonent software 4.2, USA). The levels of cytokine/chemokine are normalized to the live cell counts (1×10^5 cells/mL) and presented as concentrations per mL (pg/mL or ng/mL).

Where [1] appears, read: PBMC + LPS(5 ug/ml) + test article 0.001 uM, Mean.
The mark [2] stands for this setting: PBMC + LPS(5 ug/ml) + test article 0.001 uM, individual replicates (1st, 2nd, 3rd).
Setting [3] is: PBMC + LPS(5 ug/ml) + test article 0.01 uM, Mean.
Setting [4] is: PBMC + LPS(5 ug/ml) + test article 0.01 uM, individual replicates (1st, 2nd, 3rd).
[5] abbreviates: PBMC + LPS(5 ug/ml) + test article 0.1 uM, Mean.
[6] abbreviates: PBMC + LPS(5 ug/ml) + test article 0.1 uM, individual replicates (1st, 2nd, 3rd).
[7] abbreviates: PBMC + LPS(5 ug/ml) + test article 1 uM, Mean.
[8] abbreviates: PBMC + LPS(5 ug/ml) + test article 1 uM, individual replicates (1st, 2nd, 3rd).
Setting [9] is: PBMC + LPS(5 ug/ml) + test article 10 uM, Mean.
[10] abbreviates: PBMC + LPS(5 ug/ml) + test article 10 uM, individual replicates (1st, 2nd, 3rd).
[11] abbreviates: PBMC + LPS(5 ug/ml) + test article 100 uM, Mean.
Where [12] appears, read: PBMC + LPS(5 ug/ml) + test article 100 uM, individual replicates (1st, 2nd, 3rd).

“And” between values parts separate entries of the source, which are not always exact repeats. Identical values can stand only once. Where a SMILES comes first, the peptide text is derived from it. [ ]: non-standard residue; d: D form. Hyp = O=C(O)[C@@H]1C[C@@H](O)CN1

As for `CC(C)C[C@H](NC(=O)CNC(=O)[C@H](CC(C)C)NC(=O)[C@H](CCC(N)=O)NC(=O)CNC(=O)[C@@H]1C[C@@H](O)CN1)C(=O)N[C@@H](C)C(=O)NCC(=O)N1CCC[C@H]1C(=O)N[C@@H](CCCCN)C(=O)O` [YDE-011] (H-[Hyp]GQLGLAGPK-OH), the “TNF-alpha Concentration” value is 1257.3 pg/mL under setting [1]; 1245.3 pg/mL and 1240.9 pg/mL and 1285.6 pg/mL under setting [2]; 1293.5 pg/mL under setting [3]; 1285.6 pg/ml (2×) and 1309.5 pg/ml under setting [4]; 1269.7 pg/mL under setting [5]; 1273.7 pg/mL and 1276.6 pg/mL and 1258.7 pg/mL under setting [6]. Moreover, the “TNF-alpha Concentration” value by setting is: under setting [7], 1256.8 pg/mL; under setting [8], 1282.6 pg/mL and 1208.1 pg/mL and 1279.6 pg/mL; under setting [9], 1330.4 pg/mL; under setting [10], 1399.2 pg/mL and 1255.8 pg/mL and 1336.4 pg/mL; under setting [11], 968.4 pg/mL; under setting [12], 985.6 pg/mL and 960.5 pg/mL and 959.0 pg/mL. The TNF-alpha conc/live cell under setting [1] was 237.4 pg/10^5; the TNF-alpha conc/live cell under setting [2] is 276.7 pg/10^5 and 213.9 pg/10^5 and 221.7 pg/10^5; the TNF-alpha conc/live cell under setting [3] was 222.4 pg/10^5; the TNF-alpha conc/live cell under setting [4] was 207.4 pg/10^5 and 252.1 pg/10^5 and 207.9 pg/10^5; the TNF-alpha conc/live cell under setting [5] is recorded as 223.0 pg/10^5; the TNF-alpha conc/live cell under setting [6] was 193.0 pg/10^5 and 255.3 pg/10^5 and 220.8 pg/10^5. The TNF-alpha conc/live cell by setting is: under setting [7], 250.5 pg/10^5; under setting [8], 233.2 pg/10^5 and 251.7 pg/10^5 and 266.6 pg/10^5; under setting [9], 253.3 pg/10^5; under setting [10], 259.1 pg/10^5 and 216.5 pg/10^5 and 284.3 pg/10^5; under setting [11], 159.6 pg/10^5; under setting [12], 161.6 pg/10^5 and 157.5 pg/10^5 and 159.8 pg/10^5.

As for `CC(C)C[C@H](NC(=O)[C@H](CCC(N)=O)NC(=O)CNC(=O)[C@@H]1C[C@@H](O)CN1)C(=O)NCC(=O)O` [YDE-043] (H-[Hyp]GQLG-OH; N-terminus and C-terminus assumed), the “TNF-alpha Concentration” value reads like this: under setting [1], 1325.0 pg/mL; under setting [2], 1248.3 pg/mL and 1405.1 pg/mL and 1321.4 pg/mL; under setting [3], 1327.4 pg/mL; under setting [4], 1282.6 pg/mL and 1322.9 pg/mL and 1376.7 pg/mL; under setting [5], 1319.0 pg/mL; under setting [6], 1254.3 pg/mL and 1333.4 pg/mL and 1369.2 pg/mL. Further, the “TNF-alpha Concentration” value is 1260.8 pg/mL under setting [7]; 1330.4 pg/mL and 1136.7 pg/mL and 1315.4 pg/mL under setting [8]; 1247.9 pg/mL under setting [9]; 1175.4 pg/mL and 1249.8 pg/mL and 1318.4 pg/mL under setting [10]; 901.5 pg/mL under setting [11]; 956.0 pg/mL and 847.0 pg/mL under setting [12]. The TNF-alpha conc/live cell under setting [1] is recorded as 268.4 pg/10^5; the TNF-alpha conc/live cell under setting [2] was 283.7 pg/10^5 and 234.2 pg/10^5 and 287.3 pg/10^5; the TNF-alpha conc/live cell under setting [3] is 253.6 pg/10^5; the TNF-alpha conc/live cell under setting [4] was 285.0 pg/10^5 and 200.4 pg/10^5 and 275.3 pg/10^5; the TNF-alpha conc/live cell under setting [5] worked out at 244.5 pg/10^5; the TNF-alpha conc/live cell under setting [6] was 250.9 pg/10^5 and 238.1 pg/10^5 and 244.5 pg/10^5. Further, the TNF-alpha conc/live cell is 238.1 pg/10^5 under setting [7]; 229.4 pg/10^5 and 236.8 pg/10^5 and 248.2 pg/10^5 under setting [8]; 231.0 pg/10^5 under setting [9]; 226.0 pg/10^5 and 231.4 pg/10^5 and 235.4 pg/10^5 under setting [10]; 143.3 pg/10^5 under setting [11]; 154.2 pg/10^5 and 132.4 pg/10^5 under setting [12].
